Measurements: US9938276B2, “6,5-bicyclic octahydropyrrolopyridine orexin receptor antagonists” (Merck Sharp & Dohme Corp., priority 2014, dated 2018)

Experiments:
hOX1R = hOX1R (Homo sapiens, UniProt O43613); experiment: hOX1R FLIPR Ca2+ flux assay; format: cell-based; conditions: CHO cells expressing the receptor; agonist 70 pM Ala-6,12 human orexin-A
human orexin-2 receptor = human orexin-2 receptor (Homo sapiens (Human), UniProt O43614); experiment: hOX2R FLIPR Ca2+ flux assay; format: cell-based; conditions: CHO cells expressing the receptor; agonist 70 pM Ala-6,12 human orexin-A
Description: In a typical experiment the OX1 and OX2 receptor antagonistic activity of the compounds of the present invention was determined in accordance with the following experimental method. For intracellular calcium measurements, Chinese hamster ovary (CHO) cells expressing the rat orexin-1 receptor or the human orexin-2 receptor, are grown in Iscove's modified DMEM containing 2 mM L-glutamine, […], 1% hypoxanthine-thymidine supplement, 100 U/ml penicillin, 100 μg/ml streptomycin and 10% heat-inactivated fetal calf serum (FCS). The cells are seeded at 20,000 cells/well into Becton-Dickinson black 384-well clear bottom sterile plates coated with poly-D-lysine. All reagents were from GIBCO-Invitrogen Corp. The seeded plates are incubated overnight at 37° C. and 5% CO2. Ala-6,12 human orexin-A as the agonist is prepared as a 1 mM stock solution in 1% bovine serum albumin (BSA) and diluted in assay buffer (HBSS containing 20 mM HEPES, 0.1% BSA and 2.5 mM probenecid, pH7.4) for use in the assay at a final concentration of 70 pM. Test compounds are prepared as 10 mM stock solution in DMSO, then diluted in 384-well plates, first in DMSO, then assay buffer. On the day of the assay, cells are washed 3 times with 100 μl assay buffer and then incubated for 60 min (37° C., 5% CO2) in 60 μl assay buffer containing 1 μM Fluo-4AM ester, 0.02% pluronic acid, and 1% BSA. The dye loading solution is then aspirated and cells are washed 3 times with 100 μl assay buffer. 30 μl of that same buffer is left in each well. Within the Fluorescent Imaging Plate Reader (FLIPR, Molecular Devices), test compounds are added to the plate in a volume of 25 μl, incubated for 5 min and finally 25 μl of agonist is added. Fluorescence is measured for each well at 1 second intervals for 5 minutes and the height of each fluorescence peak is compared to the height of the fluorescence peak induced by 70 pM Ala-6,12 orexin-A with buffer in place of antagonist. […] Alternatively, compound potency can be assessed by a radioligand binding assay (described in Bergman et. al. Bioorg. Med. Chem. Lett. 2008, 18, 1425-1430) in which the inhibition constant (Ki) is determined in membranes prepared from CHO cells expressing either the OX1 or OX2 receptor. The intrinsic orexin receptor antagonist activity of a compound which may be used in the present invention may be determined by these assays.

human orexin-2 receptor, sequence (O43614 whole entry): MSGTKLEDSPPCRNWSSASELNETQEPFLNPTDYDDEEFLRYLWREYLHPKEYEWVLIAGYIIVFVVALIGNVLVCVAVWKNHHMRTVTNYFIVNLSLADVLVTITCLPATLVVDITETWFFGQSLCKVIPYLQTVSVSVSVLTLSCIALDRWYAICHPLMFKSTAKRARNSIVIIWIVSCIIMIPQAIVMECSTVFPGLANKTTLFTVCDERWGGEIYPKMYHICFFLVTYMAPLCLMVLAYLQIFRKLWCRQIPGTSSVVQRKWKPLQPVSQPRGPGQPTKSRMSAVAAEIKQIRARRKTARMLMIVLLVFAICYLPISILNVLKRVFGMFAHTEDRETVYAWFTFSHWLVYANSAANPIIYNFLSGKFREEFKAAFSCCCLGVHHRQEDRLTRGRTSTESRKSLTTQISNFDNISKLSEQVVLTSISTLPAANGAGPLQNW

Structure (SMILES) | IC50 (hOX1R) [µM] | IC50 (human orexin-2 receptor) [nM]
CC(C)(O)c1cccc(N2CC[C@@H]3CCN(C(=O)c4ccccc4-n4nccn4)C[C@@H]32)c1 [Example C4, 2-{3-[(3aR, 7aR)-6-{[2-(2H-1,2,3-triazol-2-yl)phenyl]carbonyl}octahydro-1H-pyrrolo[2,3-c]pyridin-1-yl]phenyl}propan-2-ol] | 10 | 48.6
CC(C)(O)c1ccnc(N2CC[C@@H]3CCN(C(=O)c4ccccc4-n4nccn4)C[C@@H]32)c1 [Example C5, 2-{2-[(3aR, 7aR)-6-{[2-(2H-1,2,3-triazol-2-yl)phenyl]carbonyl}octahydro-1H-pyrrolo[2,3-c]pyridin-1-yl]pyridin-4-yl}propan-2-ol] | 10 | 125
CC(C)(O)c1cnc(N2CC[C@@H]3CCN(C(=O)c4ccccc4-n4nccn4)C[C@@H]32)nc1 [Example C6, 2-{2-[(3aR, 7aR)-6-{[2-(2H-1,2,3-triazol-2-yl)phenyl]carbonyl}octahydro-1H-pyrrolo[2,3-c]pyridin-1-yl]pyrimidin-5-yl}propan-2-ol] | 10 | 1830
N#Cc1ccnc(N2CC[C@@H]3CCN(C(=O)c4cccnc4OCC(F)F)C[C@@H]32)c1 [Example D1, 2-((3aR,7aR)-6-(2-(2,2-difluoroethoxy)nicotinoyl)octahydro-1H-pyrrolo[2,3-c]pyridin-1-yl)isonicotinonitrile] | 10 | 147
CCOc1ccccc1C(=O)N1CC[C@H]2CCN(c3cc(C#N)ccn3)[C@H]2C1 [Example E1, 2-((3aR,7aR)-6-(2-ethoxybenzol)octahydro-1H-pyrrolo[2,3-c]pyridin-1-yl)isonicotinonitrile] | 10 | 110
CCCc1ccccc1C(=O)N1CC[C@H]2CCN(c3cc(C#N)ccn3)[C@H]2C1 [Example E2, 2-((3aR, 7aR)-6-(2-propylbenzoyl)octahydro-1H-pyrrolo[2,3-c]pyridin-1-yl)isonicotinonitrile] | 10 | 59.4
N#Cc1ccnc(N2CC[C@@H]3CCN(C(=O)c4ccccc4CC(F)(F)F)C[C@@H]32)c1 [Example E3, 2-((3aR, 7aR)-6-(2-(2,2,2-trifluoroethyl)benzoyl)octahydro-1H-pyrrolo[2,3-c]pyridin-1-yl)isonicotinonitrile] | 10 | 48.1
N#Cc1ccnc(N2CC[C@@H]3CCN(C(=O)c4ccc(F)cc4-n4nccn4)C[C@@H]32)c1 [Example E4, 2-((3aR, 7aR)-6-(4-fluoro-2(2H-1,2,3-triazol-2-yl)benzoyl)octahydro-1H-pyrrolo[2,3-c]pyridin-1-yl)isonicotinonitrile] | ≥ 10 | 62.7
N#Cc1ccnc(N2CC[C@@H]3CCN(C(=O)c4cccnc4-c4ccccc4)C[C@@H]32)c1 [Example E5, 2-((3aR, 7aR)-6-(2-phenylnicotinoyl)octahydro-1H-pyrrolo[2,3-c]pyridin-1-yl)isonicotinonitrile] | 10 | 93.8
CCOc1ncccc1C(=O)N1CC[C@H]2CCN(c3cc(C#N)ccn3)[C@H]2C1 [Example E6, 2-{(3aR, 7aR)-6-[(2-ethoxypyridin-3-yl)carbonyl]octahydro-1H-pyrrolo[2,3-c]pyridin-1-yl}pyridine-4-carbonitrile] | 10 | 1150
N#Cc1ccnc(N2CC[C@@H]3CCN(C(=O)c4cccnc4OCC(F)(F)F)C[C@@H]32)c1 [Example E7, 2-[(3aR, 7aR)-6-{[2-(2,2,2-trifluoroethoxy)pyridin-3-yl]carbonyl}octahydro-1H-pyrrolo[2,3-c]pyridin-1-yl]pyridine-4-carbonitrile] | 10 | 122
N#Cc1ccnc(N2CC[C@@H]3CCN(C(=O)c4ccccc4CC(F)F)C[C@@H]32)c1 [Example E8, 2-[(3aR, 7aR)-6-{[2-(2,2-difluoroethyl)phenyl]carbonyl}octahydro-1H-pyrrolo[2,3-c]pyridin-1-yl]pyridine-4-carbonitrile] | 10 | 512
N#Cc1ccnc(N2CC[C@@H]3CCN(C(=O)c4ccccc4OCC(F)(F)F)C[C@@H]32)c1 [Example E9, 2-[(3aR, 7aR)-6-{[2-(2,2,2-trifluoroethoxy)phenyl]carbonyl}octahydro-1H-pyrrolo[2,3-c]pyridin-1-yl]pyridine-4-carbonitrile] | ≥ 10 | 319
N#Cc1ccnc(N2CC[C@@H]3CCN(C(=O)c4ccccc4OCC(F)F)C[C@@H]32)c1 [Example E10, 2-[(3aR, 7aR)-6-{[2-(2,2-difluoroethoxy)phenyl]carbonyl}octahydro-1H-pyrrolo[2,3-c]pyridin-1-yl]pyridine-4-carbonitrile] | 10 | 139
N#Cc1ccnc(N2CC[C@@H]3CCN(C(=O)c4cccnc4CC(F)(F)F)C[C@@H]32)c1 [Example E11, 2-[(3aR, 7aR)-6-{[2-(2,2,2-trifluoroethyl)pyridin-3-yl]carbonyl}octahydro-1H-pyrrolo[2,3-c]pyridin-1-yl]pyridine-4-carbonitrile] | 10 | 2110
N#Cc1ccnc(N2CC[C@@H]3CCN(C(=O)c4ccccc4C4CC4)C[C@@H]32)c1 [Example E12, 2-{(3aR, 7aR)-6-[(2-cyclopropylphenyl)carbonyl]octahydro-1H-pyrrolo[2,3-c]pyridin-1-yl}pyridine-4-carbonitrile] | 10 | 81.6
COc1ccc(C(=O)N2CC[C@H]3CCN(c4cc(C#N)ccn4)[C@H]3C2)c(C2CC2)n1 [Example E13, 2-{(3aR, 7aR)-6-[(2-cyclopropyl-6-methoxypyridin-3-yl)carbonyl]octahydro-1H-pyrrolo[2,3-c]pyridin-1-yl}pyridine-4-carbonitrile] | 10 | 980
N#Cc1ccnc(N2CC[C@@H]3CCN(C(=O)c4ccccc4-n4cccn4)C[C@@H]32)c1 [Example E14, 2-[(3aR, 7aR)-6-{[2-(1H-pyrazol-1-yl)phenyl]carbonyl}octahydro-1H-pyrrolo[2,3-c]pyridin-1-yl]pyridine-4-carbonitrile] | 10 | 256
N#Cc1ccnc(N2CC[C@@H]3CCN(C(=O)c4ccccc4C4CCC4)C[C@@H]32)c1 [Example E15, 2-{(3aR, 7aR)-6-[(2-cyclobutylphenyl)carbonyl]octahydro-1H-pyrrolo[2,3-c]pyridin-1-yl}pyridine-4-carbonitrile] | 9.72 | 31.1
N#Cc1ccnc(N2CC[C@@H]3CCN(C(=O)c4ccccc4N4CCCC4)C[C@@H]32)c1 [Example E16, 2-{(3aR, 7aR)-6-[(2-pyrrolidin-1-ylphenyl)carbonyl]octahydro-1H-pyrrolo[2,3-c]pyridin-1-yl}pyridine-4-carbonitrile] | 10 | 98.9
N#Cc1ccnc(N2CC[C@@H]3CCN(C(=O)c4nccnc4N4CCCC4)C[C@@H]32)c1 [Example E17, 2-{(3aR, 7aR)-6-[(3-pyrrolidin-1-ylpyrazin-2-yl)carbonyl]octahydro-1H-pyrrolo[2,3-c]pyridin-1-yl}pyridine-4-carbonitrile] | 10 | 10000
N#Cc1ccnc(N2CC[C@@H]3CCN(C(=O)c4ncccc4-c4ccccc4)C[C@@H]32)c1 [Example E18, 2-{(3aR, 7aR)-6-[(3-phenylpyridin-2-yl)carbonyl]octahydro-1H-pyrrolo[2,3-c]pyridin-1-yl}pyridine-4-carbonitrile] | ≥ 10 | 76.9
